Measurements from the NIST ThermoML archive (doi:10.1021/je9006579).
± gives the expanded uncertainty stated by the source.

Experiments:
[1] = molar heat capacity at constant pressure; xn = mol fraction of the nth substance listed; details: 101 kPa, Liquid, Cooling curve
[2] = molar heat capacity at constant pressure; details: 101.33 kPa, Liquid, Cooling curve

Structure (SMILES): CC(=O)OC(C)=O [ethanoic anhydride] + CC(=O)O
- molar heat capacity at constant pressure ([1]; 308.15 K, x1 = 0.0613): 139.18 ± 21 J/K/mol
- molar heat capacity at constant pressure ([1]; 308.15 K, x1 = 0.1282): 144.25 ± 21 J/K/mol
- molar heat capacity at constant pressure ([1]; 308.15 K, x1 = 0.2013): 149.4 ± 21 J/K/mol
- molar heat capacity at constant pressure ([1]; 308.15 K, x1 = 0.2817): 154.9 ± 21 J/K/mol
- molar heat capacity at constant pressure ([1]; 308.15 K, x1 = 0.3704): 160.85 ± 21 J/K/mol
- molar heat capacity at constant pressure ([1]; 308.15 K, x1 = 0.4687): 167.3 ± 21 J/K/mol
- molar heat capacity at constant pressure ([1]; 308.15 K, x1 = 0.5785): 174.47 ± 21 J/K/mol
- molar heat capacity at constant pressure ([1]; 308.15 K, x1 = 0.7017): 182.33 ± 21 J/K/mol
- molar heat capacity at constant pressure ([1]; 308.15 K, x1 = 0.8411): 190.56 ± 21 J/K/mol
- molar heat capacity at constant pressure ([1]; 308.15 K, x1 = 1): 199.93 ± 21 J/K/mol
- molar heat capacity at constant pressure ([1]; 313.15 K, x1 = 0.0613): 139.82 ± 21 J/K/mol
- molar heat capacity at constant pressure ([1]; 313.15 K, x1 = 0.1282): 144.91 ± 21 J/K/mol
- molar heat capacity at constant pressure ([1]; 313.15 K, x1 = 0.2013): 150.09 ± 21 J/K/mol
- molar heat capacity at constant pressure ([1]; 313.15 K, x1 = 0.2817): 155.59 ± 21 J/K/mol
- molar heat capacity at constant pressure ([1]; 313.15 K, x1 = 0.3704): 161.58 ± 21 J/K/mol
- molar heat capacity at constant pressure ([1]; 313.15 K, x1 = 0.4687): 168.08 ± 21 J/K/mol
- molar heat capacity at constant pressure ([1]; 313.15 K, x1 = 0.5785): 175.28 ± 21 J/K/mol
- molar heat capacity at constant pressure ([1]; 313.15 K, x1 = 0.7017): 183.12 ± 21 J/K/mol
- molar heat capacity at constant pressure ([1]; 313.15 K, x1 = 0.8411): 191.49 ± 21 J/K/mol
- molar heat capacity at constant pressure ([1]; 313.15 K, x1 = 1): 200.73 ± 21 J/K/mol
- molar heat capacity at constant pressure ([1]; 318.15 K, x1 = 0.0613): 140.51 ± 21 J/K/mol
- molar heat capacity at constant pressure ([1]; 318.15 K, x1 = 0.1282): 145.46 ± 21 J/K/mol
- molar heat capacity at constant pressure ([1]; 318.15 K, x1 = 0.2013): 150.76 ± 21 J/K/mol
- molar heat capacity at constant pressure ([1]; 318.15 K, x1 = 0.2817): 156.27 ± 21 J/K/mol
- molar heat capacity at constant pressure ([1]; 318.15 K, x1 = 0.3704): 162.26 ± 21 J/K/mol
- molar heat capacity at constant pressure ([1]; 318.15 K, x1 = 0.4687): 168.76 ± 21 J/K/mol
- molar heat capacity at constant pressure ([1]; 318.15 K, x1 = 0.5785): 176.03 ± 21 J/K/mol
- molar heat capacity at constant pressure ([1]; 318.15 K, x1 = 0.7017): 183.96 ± 21 J/K/mol
- molar heat capacity at constant pressure ([1]; 318.15 K, x1 = 0.8411): 192.33 ± 21 J/K/mol
- molar heat capacity at constant pressure ([1]; 318.15 K, x1 = 1): 201.58 ± 21 J/K/mol
- molar heat capacity at constant pressure ([1]; 323.15 K, x1 = 0.0613): 141.12 ± 21 J/K/mol
- molar heat capacity at constant pressure ([1]; 323.15 K, x1 = 0.1282): 145.9 ± 21 J/K/mol
- molar heat capacity at constant pressure ([1]; 323.15 K, x1 = 0.2013): 151.31 ± 21 J/K/mol
- molar heat capacity at constant pressure ([1]; 323.15 K, x1 = 0.2817): 156.85 ± 21 J/K/mol
- molar heat capacity at constant pressure ([1]; 323.15 K, x1 = 0.3704): 162.89 ± 21 J/K/mol
- molar heat capacity at constant pressure ([1]; 323.15 K, x1 = 0.4687): 169.45 ± 21 J/K/mol
- molar heat capacity at constant pressure ([1]; 323.15 K, x1 = 0.5785): 176.76 ± 21 J/K/mol
- molar heat capacity at constant pressure ([1]; 323.15 K, x1 = 0.7017): 184.78 ± 21 J/K/mol
- molar heat capacity at constant pressure ([1]; 323.15 K, x1 = 0.8411): 193.23 ± 21 J/K/mol
- molar heat capacity at constant pressure ([1]; 323.15 K, x1 = 1): 202.53 ± 21 J/K/mol
- molar heat capacity at constant pressure ([1]; 328.15 K, x1 = 0.0613): 141.75 ± 21 J/K/mol
- molar heat capacity at constant pressure ([1]; 328.15 K, x1 = 0.1282): 146.52 ± 21 J/K/mol
- molar heat capacity at constant pressure ([1]; 328.15 K, x1 = 0.2013): 152.03 ± 21 J/K/mol
- molar heat capacity at constant pressure ([1]; 328.15 K, x1 = 0.2817): 157.59 ± 21 J/K/mol
- molar heat capacity at constant pressure ([1]; 328.15 K, x1 = 0.3704): 163.68 ± 21 J/K/mol
- molar heat capacity at constant pressure ([1]; 328.15 K, x1 = 0.4687): 170.33 ± 21 J/K/mol
- molar heat capacity at constant pressure ([1]; 328.15 K, x1 = 0.5785): 177.68 ± 21 J/K/mol
- molar heat capacity at constant pressure ([1]; 328.15 K, x1 = 0.7017): 185.79 ± 21 J/K/mol
- molar heat capacity at constant pressure ([1]; 328.15 K, x1 = 0.8411): 194.35 ± 21 J/K/mol
- molar heat capacity at constant pressure ([1]; 328.15 K, x1 = 1): 203.67 ± 21 J/K/mol
- molar heat capacity at constant pressure ([1]; 333.15 K, x1 = 0.0613): 142.23 ± 21 J/K/mol
- molar heat capacity at constant pressure ([1]; 333.15 K, x1 = 0.1282): 147.13 ± 21 J/K/mol
- molar heat capacity at constant pressure ([1]; 333.15 K, x1 = 0.2013): 152.51 ± 21 J/K/mol
- molar heat capacity at constant pressure ([1]; 333.15 K, x1 = 0.2817): 158.1 ± 21 J/K/mol
- molar heat capacity at constant pressure ([1]; 333.15 K, x1 = 0.3704): 164.24 ± 21 J/K/mol
- molar heat capacity at constant pressure ([1]; 333.15 K, x1 = 0.4687): 170.89 ± 21 J/K/mol
- molar heat capacity at constant pressure ([1]; 333.15 K, x1 = 0.5785): 178.31 ± 21 J/K/mol
- molar heat capacity at constant pressure ([1]; 333.15 K, x1 = 0.7017): 186.44 ± 21 J/K/mol
- molar heat capacity at constant pressure ([1]; 333.15 K, x1 = 0.8411): 195 ± 21 J/K/mol
- molar heat capacity at constant pressure ([1]; 333.15 K, x1 = 1): 204.34 ± 21 J/K/mol

Structure (SMILES): CCCCCCC [heptane]
- molar heat capacity at constant pressure ([2]; 313.15 K): 230.37 ± 22 J/K/mol
- molar heat capacity at constant pressure ([2]; 333.15 K): 240.03 ± 22 J/K/mol
